Reference: publication PMC12679848, “Sulphonamide derivatives with a triazine core as novel inducers of apoptosis and pyroptosis in glioblastoma multiforme cells” (Journal of Enzyme Inhibition and Medicinal Chemistry, 2025)
Each block holds one compound with its values, some of them ahead of it.

Key:
caspase 9 = assay: Caspase 9 activation (FAM FLICA), U-87 MG; type: cell-based, human; settings: 1.5 μM, 24 h
Procedure: (§1) The activity of caspase 1, caspase 3/7, caspase 8, and caspase 9 was evaluated through the utilisation of FAM FLICA Caspase Assays (ImmunoChemistry Technologies, Bloomington, MN, USA), in accordance with the established protocols. Following treatment with the compounds, the cells were collected at a concentration of 1 × 10^6 cells/mL, washed twice with cold PBS, and resuspended in 290 μL of PBS. The subsequent step involved the addition of 10 μL of 30X FLICA solution, followed by incubation at 37 °C in the absence of light for one hour. Then, 2 ml of Apoptosis Wash Buffer was added, and the samples were washed twice. A 300 μL aliquot of each sample was transferred to a BD FACSCanto II flow cytometer (Becton Dickinson Biosciences, San Jose, CA, USA), where 10,000 events per sample were recorded. The resulting data was then analysed using FACSDiva software, version 6.1.3 (BD Biosciences Systems, San Jose, CA, USA).

C8-D1A = assay: MTT assay, C8-D1A astrocytes; type: cell-based; settings: C8-D1A mouse astrocytes, 24 h of incubation; read-out: IC50 values ± SEM, MTT assay
Procedure: (§2) Human glioblastoma cell lines (A172 CRL-1620™, U-87 MG HTB-14™, U-118 MG HTB-15™, T98G CRL-1690™) and the mouse astrocyte cell line (C8-D1A CRL-2541™) were obtained from the American Type Culture Collection (ATCC, Manassas, VA, USA). The cell lines were cultured in complete medium: DMEM (Corning, Kennebunk, ME, USA) for C8-D1A and T98G, and EMEM (ATCC, Manassas, VA, USA) for A172, U-87 MG, U118MG. The media were supplemented with 10% foetal bovine serum (Eurx, Gdansk, Poland) and 1% penicillin-streptomycin solution (Corning, Kennebunk, ME, USA). Cells were cultured in cell culture flasks (Sarstedt, Numbrecht, Germany) at 37 °C in 5% CO2. For experiments, cells were washed with phosphate-buffered saline without calcium and magnesium (Corning, Kennebunk, ME, USA) and treated with 0.05% trypsin and 0.02% EDTA (Corning, Kennebunk, ME, USA). Cells were counted using a Sceptre 3.0 cell counter (Merck Millipore, Burlington, MA, USA) prior to seeding into plates. For 6-well plates, 5 x 10^5 cells/mL were seeded, while for 96-well plates (Sarstedt, Numbrecht, Germany), 1 x 10^5 cells/mL were seeded in 100 μL of the medium.
(§3) The cell lines were seeded in 96-well plates and cultured according to the methodology described in the previous section. Cells were then treated with the novel derivatives MM118 and MM119 and the reference compound temozolomide (TMZ) (Sigma-Aldrich, St. Louis, MO, USA) at concentrations of 0.1, 0.25, 0.5, 1.0, 2.5, 5.0, and 10.0 μM for 24 h. The MTT assay was performed using a solution of 3–(4,5-dimethyl-2-thiazolyl)-2,5-diphenyl-2H-tetrazolium bromide (Sigma-Aldrich, St. Louis, MO, USA) at a concentration of 5 mg/mL in phosphate-buffered saline without calcium and magnesium (Corning, Kennebunk, ME, USA). After 24 h incubation with test compounds, 10 μL MTT solution was added to each well, and cells were incubated for another 2 h at 37 °C. The cells were then lysed in 100 μL lysis buffer (25 mM HCl, 2% acetic acid, 3% DMF, and 5% SDS, adjusted to pH 4.7). Absorbance was measured at 570 nm using an Absorbance 96 microplate reader (Byonoy GmbH, Hamburg, Germany).

caspase 8 [1] = assay: Caspase 8 activation (FAM FLICA), A172; type: cell-based, human; settings: A172, 1.5 μM, 24 h
Procedure: as §1

caspase 1 = assay: Caspase 1 activation (FAM FLICA), A172; type: cell-based, human; settings: 24 h
Procedure: Given the activation of oxidative stress and the occurrence of apoptotic cell death, we decided to verify whether other cell death pathways are triggered. The level of pyroptosis induction of the newly synthesised compounds MM118 and MM119 was determined by assessing the activation of caspase 1. This method facilitates the identification of cells undergoing pyroptosis by detecting the active form of caspase 1, which is a pivotal mediator in the pyroptotic pathway. The tested compounds were analysed on human A172 and U-87 MG glioblastoma multiforme cell lines using concentrations of 1 μM and 1.5 μM for a period of 24 h. […] Conversely, for compound MM119 in line A172, caspase 1 activation was 12.35 ± 2.00% at a concentration of 1 μM and 21.30 ± 1.57% at a concentration of 1.5 μM. For the U-87 MG line, the values were 12.25 ± 2.16% and 24.50 ± 2.11%, respectively.
as §1

caspase 8 [2] = assay: Caspase 8 activation (FAM FLICA), U-87 MG; type: cell-based, human; settings: 1.5 μM, 24 h
Procedure: as §1

NF-κB = assay: NF-kB staining (immunofluorescence, confocal); type: cell-based; settings: 1.5 μM, 24 h of treatment
Procedure: Location of NF-kB was evaluated by immunofluorescence staining. Cells were cultured on sterile coverslips placed in 6-well plates and treated with compounds MM118, MM119, and TMZ at a concentration of 1.5 μM. After 24 h of treatment, cells were fixed with 4% paraformaldehyde for 15 min at room temperature, then permeabilized with 0.1% Triton X-100 in PBS for 10 min. Following permeabilization, cells were blocked with 2% BSA (bovine serum albumin; Cell Signalling Technology, Danvers, MA, USA) in PBS for 30 min to prevent non-specific binding. Subsequently, cells were incubated overnight at 4 °C with a NF-KB antibody directly conjugated with Alexa Fluor 647 (#D14E12; Cell Signalling Technology, Danvers, MA, USA). The next day, after washing with PBS, nuclei were counterstained with DAPI (4′,6-diamidino-2-phenylindole; Sigma-Aldrich, St. Louis, MO, USA) for 5 min at room temperature. Coverslips were mounted onto glass slides using an antifade mounting medium and imaged using a Stellaris 5 confocal microscope (Leica Microsystems, GmbH, Wetzlar, Germany). Images were analysed using ImageJ software (Bethesda, MD, USA).

U-87 MG = assay: MTT assay, U-87 MG; type: cell-based; settings: Homo sapiens, 24 h of incubation, read-out: IC50 values ± SEM, MTT assay
Procedure: as §2, §3

IC50 (U-87 MG): 1190 ± 422 nM
Structure (SMILES): CCC(CO)NS(=O)(=O)c1ccc(-n2nc(C)c3nc4nnnn4nc32)cc1 (stereo in doubt) [MM119, N-(S)-(1-hydroxy-but-2-yl)-4-[7-methyl-5H-pyrazolo[4,3-e]tetrazolo[1,5-b][1]^,[2]^,[4]triazin-5-yl)]benzenesulfonamide]
Active caspase 9 (cell population) (caspase 9): 51.45 ± 1.63%
IC50 (C8-D1A): 2250 ± 294 nM
Active caspase 8 (cell population) (caspase 8 [1]): 34.35 ± 7.58%
Active caspase 1 (cell population) (caspase 1; A172, 1.0 μM): 12.35 ± 2.00%
Active caspase 1 (cell population) (caspase 1; A172, 1.5 μM): 21.30 ± 1.57%
Active caspase 8 (cell population) (caspase 8 [2]): 69.15 ± 6.30%
NF-κB localisation (NF-κB): NF-κB translocates to the cell nucleus

IC50 (U-87 MG): 992 ± 370 nM
Structure (SMILES): CCC(CO)NS(=O)(=O)c1ccc(-n2nc(C)c3nc4nnnn4nc32)cc1 (stereo in doubt) [MM118, N-(R)-(1-hydroxy-but-2-yl)-4-[7-methyl-5H-pyrazolo[4,3-e]tetrazolo[1,5-b][1]^,[2]^,[4]triazin-5-yl)]benzenesulfonamide]
Active caspase 9 (cell population) (caspase 9): 67.23 ± 1.66%
IC50 (C8-D1A): 2190 ± 340 nM
Active caspase 8 (cell population) (caspase 8 [1]): 42.85 ± 5.36%
Active caspase 1 (cell population) (caspase 1; A172, 1.0 μM): 12.10 ± 1.69%
Active caspase 1 (cell population) (caspase 1; A172, 1.5 μM): 20.38 ± 1.75%
Active caspase 8 (cell population) (caspase 8 [2]): 73.65 ± 3.76%
NF-κB localisation (NF-κB): NF-κB translocates to the cell nucleus

IC50 (U-87 MG): > 10000 nM
Structure (SMILES): Cn1nnc2c(C(N)=O)ncn2c1=O [TMZ, temozolomide, reference compound]
Active caspase 9 (cell population) (caspase 9): no significant differences
IC50 (C8-D1A): > 10000 nM
Active caspase 8 (cell population) (caspase 8 [1]): No significant statistical differences
Active caspase 1 (cell population) (caspase 1; A172, 1.5 μM): no significant differences
Active caspase 8 (cell population) (caspase 8 [2]): No significant statistical differences
NF-κB localisation (NF-κB): NF-κB translocates to the cell nucleus
